Data reported in paper PMC9798004 (Frontiers in Psychiatry, 2022).
Structures can show the parent of a compound that is named as a salt. No end group written: not given here.

Columns and labels:
Assay type in all cases: cell-based
[1] = molecular target: T1, GPR119 (Homo sapiens, UniProt Q8TDV5); assay: PathHunter β-arrestin assay; details: for inhibition in single-point screen: antagonist mode, 30 μM
T1 construct: purchased Eurofins DiscoverX (PathHunter gpcrMAX)
T1 sequence (Q8TDV5 1-335): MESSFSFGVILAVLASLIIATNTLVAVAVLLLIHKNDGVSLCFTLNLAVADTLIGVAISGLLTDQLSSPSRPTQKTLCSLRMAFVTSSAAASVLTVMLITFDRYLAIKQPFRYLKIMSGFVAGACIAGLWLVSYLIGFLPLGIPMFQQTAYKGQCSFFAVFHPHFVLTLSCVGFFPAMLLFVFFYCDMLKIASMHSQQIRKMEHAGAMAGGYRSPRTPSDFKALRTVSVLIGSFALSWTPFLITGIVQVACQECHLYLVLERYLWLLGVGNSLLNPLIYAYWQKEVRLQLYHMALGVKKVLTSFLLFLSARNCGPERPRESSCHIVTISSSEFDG

[2] = tested on: 168 GPCRs; assay: gpcrMAX panel 30 μM single-point β-arrestin screen (agonist and antagonist mode); details: antagonist mode
Procedure: Activity, or a “hit,” was defined as >30% in agonist mode, >35% in antagonist mode, or >50% in the orphan screen (agonist mode). Where these criteria were met, signal-to-noise (S/N) and coefficient of variation (CoV) were also calculated, defined as: […]
Agonist mode Antagonist modeS/N Compound mean/Baseline mean+(Baseline SD×3) EC80 mean/Compound-(Compound SD× 3)CoV Baseline mean/Compound mean-(Compound SD× 3) Compound mean/EC80 mean-(EC80 SD × 3)
Hits were verified to have S/N>1 and a CoV <1. Thresholds and subsequent validation were guided by Eurofins. Descriptive data (means ± S.E.M) was generated in Graphpad Prism (version 9.2.0, San Diego, CA).

[3] = molecular target: T2, CCR6 (Homo sapiens, UniProt P51684); assay: PathHunter β-arrestin assay; details: control agonist
T2 construct: purchased Eurofins DiscoverX (PathHunter gpcrMAX)
T2 sequence (P51684 1-374): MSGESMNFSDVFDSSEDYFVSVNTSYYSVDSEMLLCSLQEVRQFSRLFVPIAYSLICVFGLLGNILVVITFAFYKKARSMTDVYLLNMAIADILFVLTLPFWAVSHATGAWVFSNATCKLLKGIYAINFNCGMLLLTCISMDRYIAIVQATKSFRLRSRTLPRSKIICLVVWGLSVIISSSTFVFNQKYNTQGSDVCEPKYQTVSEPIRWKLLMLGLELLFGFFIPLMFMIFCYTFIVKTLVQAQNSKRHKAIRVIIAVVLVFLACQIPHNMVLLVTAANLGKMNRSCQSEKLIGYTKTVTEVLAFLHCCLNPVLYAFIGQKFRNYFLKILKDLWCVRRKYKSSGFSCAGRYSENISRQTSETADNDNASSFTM
Procedure: (§1) Follow up experiments were prioritized based on the difference between S/N and CoV. Targets with a >5-fold difference between S/N and CoV were investigated for their potential contribution to the AMB-FUBINACA toxidrome with 10-point concentration-response curves generated in technical replicate (range 1.5–30 μM) using the EC80 of the relevant agonist, where applicable in antagonist mode. Simultaneous agonist and antagonist curves were run in parallel to ensure reliability of the assay (see Supplementary Table 2), with both RC50 and signal to background aligning with historical averages, and Z' >0.5. RC50 was estimated using a four-parameter fit (CBIS Data Analysis Suite, ChemInnovation, San Diego, CA) on normalized data.

[4] = tested on: AtT20 cells wildtype (WT); assay: LDH release cytotoxicity assay; details: 30 μM
Procedure: AtT20 cells expressing either human CB1 (hCB1) or CB2 (hCB2) receptors or wildtype (WT) were grown to confluence in T75 cm^2 flasks in Dulbecco's modified eagle medium containing 10% fetal bovine serum, 100 U penicillin/streptomycin, and 80 μg/mL hygromicyin (Sigma-Aldrich/Merck; Castle Hill, NSW, Australia). Cells were plated in 96-well-microplates at 30,000 cells per well and allowed to adhere overnight in 5% CO2. The following morning, cells were treated with either vehicle (0.1% DMSO; negative control), 30 μM Δ^9-THC, or 30 μM AMB-FUBINACA. At 1 or 6 h, the amount of lactate dehydrogenase in the cell media was tested, and compared with positive control (lysed cells) as per manufacturer's instructions (Dojindo Molecular Technologies, Inc.; Rockville, MD, USA), with readings performed on a Clariostar Plus plate reader (BMG Labtech, Mornington, VIC, Australia). Experiments were performed in triplicate. In order to measure any accumulating LDH, media was not changed after initial incubation. Data is represented as means ± S.E.M. A two-way ANOVA with was performed on the data at each time point, with Tukey's multiple comparison test (α = 0.05). A p < 0.05 was considered statistically significant.

[5] = molecular target: T3, CCR4 (Homo sapiens, UniProt P51679); assay: PathHunter β-arrestin assay; details: for EC80: control agonist
T3 sequence (P51679 1-360): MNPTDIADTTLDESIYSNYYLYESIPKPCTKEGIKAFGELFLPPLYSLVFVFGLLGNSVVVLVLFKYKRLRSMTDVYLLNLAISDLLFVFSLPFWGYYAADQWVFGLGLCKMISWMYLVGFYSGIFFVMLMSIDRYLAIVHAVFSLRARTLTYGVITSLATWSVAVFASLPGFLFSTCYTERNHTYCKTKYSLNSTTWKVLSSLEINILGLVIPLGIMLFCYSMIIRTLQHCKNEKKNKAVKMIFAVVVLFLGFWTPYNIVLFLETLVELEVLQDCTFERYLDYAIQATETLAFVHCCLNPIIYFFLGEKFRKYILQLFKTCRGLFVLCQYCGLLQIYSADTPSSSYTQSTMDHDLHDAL
Procedure: as §1

[6] = molecular target: GPR35 (Homo sapiens, UniProt Q9HC97); assay: PathHunter β-arrestin assay; details: control agonist
Sequence of GPR35 (Q9HC97 whole entry): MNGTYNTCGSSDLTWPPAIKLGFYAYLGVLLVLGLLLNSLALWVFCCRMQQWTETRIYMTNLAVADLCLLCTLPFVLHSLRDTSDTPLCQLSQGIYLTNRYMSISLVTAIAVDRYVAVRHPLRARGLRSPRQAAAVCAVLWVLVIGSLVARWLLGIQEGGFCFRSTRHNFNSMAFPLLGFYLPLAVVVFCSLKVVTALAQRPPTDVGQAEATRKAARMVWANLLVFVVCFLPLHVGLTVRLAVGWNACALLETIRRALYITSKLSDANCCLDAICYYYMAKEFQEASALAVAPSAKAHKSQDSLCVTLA

[7] = molecular target: T4, HCRTR1 (Homo sapiens, UniProt O43613); assay: PathHunter β-arrestin assay; details: control agonist
T4 sequence (O43613 1-425): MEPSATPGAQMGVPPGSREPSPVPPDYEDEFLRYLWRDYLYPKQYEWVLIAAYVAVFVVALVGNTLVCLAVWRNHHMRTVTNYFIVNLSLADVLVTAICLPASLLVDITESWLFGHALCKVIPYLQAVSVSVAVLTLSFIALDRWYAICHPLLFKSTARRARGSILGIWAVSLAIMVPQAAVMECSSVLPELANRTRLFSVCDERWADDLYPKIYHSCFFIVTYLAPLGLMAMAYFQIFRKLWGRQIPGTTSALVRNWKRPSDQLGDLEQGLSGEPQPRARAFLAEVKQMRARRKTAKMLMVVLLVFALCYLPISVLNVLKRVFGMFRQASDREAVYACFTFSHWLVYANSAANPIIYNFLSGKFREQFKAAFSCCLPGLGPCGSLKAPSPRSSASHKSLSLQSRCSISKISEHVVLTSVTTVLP
Procedure: as §1

[8] = molecular target: PTGER4 (Homo sapiens, UniProt P35408); assay: PathHunter β-arrestin assay; details: follow-up assays, control antagonist
Sequence of PTGER4 (P35408 whole entry): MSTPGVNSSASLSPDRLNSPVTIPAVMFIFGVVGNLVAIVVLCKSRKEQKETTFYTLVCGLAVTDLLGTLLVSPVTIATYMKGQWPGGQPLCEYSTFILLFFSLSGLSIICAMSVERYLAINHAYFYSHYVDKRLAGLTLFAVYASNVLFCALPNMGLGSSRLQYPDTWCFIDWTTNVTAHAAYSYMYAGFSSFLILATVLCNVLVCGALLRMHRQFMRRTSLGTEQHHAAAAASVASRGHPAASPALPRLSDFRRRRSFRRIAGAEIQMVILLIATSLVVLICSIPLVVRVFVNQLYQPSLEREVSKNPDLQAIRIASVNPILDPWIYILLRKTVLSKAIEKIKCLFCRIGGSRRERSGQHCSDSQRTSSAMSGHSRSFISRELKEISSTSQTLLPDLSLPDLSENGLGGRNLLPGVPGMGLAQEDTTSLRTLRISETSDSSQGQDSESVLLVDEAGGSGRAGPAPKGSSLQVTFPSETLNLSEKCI
Procedure: as §1

[9] = molecular target: P2RY6 (Homo sapiens, UniProt Q15077); assay: PathHunter β-arrestin assay
Sequence of P2RY6 (Q15077 whole entry): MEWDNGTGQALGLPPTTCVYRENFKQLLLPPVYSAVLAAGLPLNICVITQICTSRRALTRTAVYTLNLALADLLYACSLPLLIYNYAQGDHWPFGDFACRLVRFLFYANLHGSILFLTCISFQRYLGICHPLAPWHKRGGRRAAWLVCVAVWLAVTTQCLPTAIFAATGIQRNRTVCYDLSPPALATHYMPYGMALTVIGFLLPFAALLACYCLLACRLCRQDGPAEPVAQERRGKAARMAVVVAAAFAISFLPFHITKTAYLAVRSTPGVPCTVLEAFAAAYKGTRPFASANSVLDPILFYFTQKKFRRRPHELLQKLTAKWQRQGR
Procedure: as §1

[10] = molecular target: T5, ADRA2C (Homo sapiens, UniProt P18825); assay: PathHunter β-arrestin assay; details: control agonist
T5 sequence (P18825 1-462): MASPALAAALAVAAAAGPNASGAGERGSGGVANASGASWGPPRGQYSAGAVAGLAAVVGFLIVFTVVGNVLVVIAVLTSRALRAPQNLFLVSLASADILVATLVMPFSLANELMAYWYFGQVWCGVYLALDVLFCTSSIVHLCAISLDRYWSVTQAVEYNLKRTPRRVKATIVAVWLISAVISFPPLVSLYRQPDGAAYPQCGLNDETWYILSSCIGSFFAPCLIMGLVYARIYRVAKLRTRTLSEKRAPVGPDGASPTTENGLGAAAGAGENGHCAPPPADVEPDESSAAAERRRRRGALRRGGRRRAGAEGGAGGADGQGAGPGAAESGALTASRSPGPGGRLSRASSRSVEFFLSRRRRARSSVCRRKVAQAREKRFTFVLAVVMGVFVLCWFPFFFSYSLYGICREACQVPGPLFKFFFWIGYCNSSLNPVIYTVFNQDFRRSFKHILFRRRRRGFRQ

[11] = molecular target: CCR8 (Homo sapiens, UniProt P51685); assay: PathHunter β-arrestin assay; details: control agonist
Procedure: as §1

[12] = molecular target: T6, CCR9 (Homo sapiens, UniProt P51686); assay: PathHunter β-arrestin assay; details: control agonist
T6 construct: purchased Eurofins DiscoverX (PathHunter gpcrMAX)
T6 sequence (P51686 1-369): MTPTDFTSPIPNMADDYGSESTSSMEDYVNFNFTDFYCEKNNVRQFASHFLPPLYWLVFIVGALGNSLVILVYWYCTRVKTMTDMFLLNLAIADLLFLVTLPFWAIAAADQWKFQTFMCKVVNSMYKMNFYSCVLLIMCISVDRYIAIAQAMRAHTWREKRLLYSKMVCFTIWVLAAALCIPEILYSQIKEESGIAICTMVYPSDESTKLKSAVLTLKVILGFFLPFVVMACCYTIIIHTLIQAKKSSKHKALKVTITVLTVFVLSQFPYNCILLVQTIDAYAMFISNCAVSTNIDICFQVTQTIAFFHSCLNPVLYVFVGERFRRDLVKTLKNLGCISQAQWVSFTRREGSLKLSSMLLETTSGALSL
Procedure: as §1

[13] = follow-up concentration-response assays
[14] = follow-up assays, control antagonist

CCCCCn1nc(C(=O)NC(C)(C)c2ccccc2)c2ccccc21 [CUMYL-PINACA]
inhibition in single-point screen [1]: inhibited to the greatest extent of any antagonist mode target
number of off-targets inhibited (>35%) [2]: inhibited the greatest number of targets

CCL20: control agonist
EC80 [3, 13]: 0.04468 µM
EC80 ([3]; screen, CHO, 37C, 2HR): 0.0447 µM

CCCCCc1cc(O)c2c(c1)OC(C)(C)[C@@H]1CCC(C)=C[C@@H]21 [THC, Δ^9-tetrahydrocannabinol]
LDH in cell media, normalized to total LDH ([4]; 1 h): 22.40 ± 3.44%
LDH increase compared with vehicle ([4]; 6 h): no effect was observed

COc1cc2nc(N3CCC(N4CCCCC4)CC3)nc(NC3CCCCCC3)c2cc1OC [C 021 dihydrochloride]
IC50 [5, 14]: 2.58 nM

CCCCCn1cc(C(=O)Oc2cccc3cccnc23)c2ccccc21 [PB-22]
number of off-targets inhibited (>35%) [2]: 20

CCCOc1ccccc1-c1nc2nn[nH]c2c(=O)[nH]1 [Zaprinast]
EC80 [6, 13]: 4.048 µM
EC80 ([6]; screen, CHO, 37C, 2HR): 12.1 µM

CCCCCn1nc(C(=O)NC23CC4CC(CC(C4)C2)C3)c2ccccc21 [AKB-48]
inhibition in single-point screen [1]: inhibited to the greatest extent of any antagonist mode target

CCCCCCCC/C=C\CCCCCCCC(=O)NCCO [Oleoyl Ethanolamide]
EC80 ([1]; screen, control agonist, HEK, 37C, 2HR): 4.31 µM

Orexin A (QPLPDCCRQKTCSCRLYELLHGAGNHAAGILTL; not fully specified (residue 1, C-terminus, bridges); cysteine pairing not given here; UniProt O43612 34-66, looked up) [control agonist]
EC80 [7, 13]: 0.01062 µM
EC80 ([7]; screen, CHO, 37C, 2HR): 0.0106 µM

CCCCc1nn(-c2ccccc2C(F)(F)F)c(=O)n1Cc1ccc(-c2ccccc2S(=O)(=O)NC(=O)c2sccc2C)cc1 [L 161,982]
IC50 [8]: 15.9 nM

COC(=O)C(NC(=O)c1nn(CCCCF)c2ccccc12)C(C)(C)C (centres unmarked) [4F-MDMB-BUTINACA]
number of off-targets inhibited (>35%) [2]: 16

O=c1ccn([C@@H]2O[C@H](COP(=O)(O)OP(=O)(O)O)[C@@H](O)[C@H]2O)c(=O)[nH]1 [UDP]
EC80 ([9]; follow-up concentration-response assays, control agonist): 0.07488 µM

Brc1c(NC2=NCCN2)ccc2nccnc12 [UK 14,304]
EC80 [10, 13]: 0.1231 µM
EC80 ([10]; screen, CHO, RT, 2HR): 0.111 µM

S=C=Nc1cccc(NC(=S)NCCCCNC(=S)Nc2cccc(N=C=S)c2)c1 [MRS 2578]
IC50 [9, 14]: 2520 nM

B1: CCL22: control agonist (protein, UniProt O00626 25-93, looked up)
C-C motif chemokine 22: GPYGANMEDSVCCRDYVRYRLPLRVVKHFYWTSDSCPRPGVVLLTFRDKEICADPRVPWVKMILNKLSQ
EC80 [5, 13]: 0.01961 µM
EC80 ([5]; screen, CHO, 37C, 2HR): 0.00654 µM

B2: CCL1: control agonist (protein, UniProt P22362 24-96, looked up)
C-C motif chemokine 1: KSMQVPFSRCCFSFAEQEIPLRAILCYRNTSSICSNEGLIFKLKRGKEACALDTVGWVQRHRKMLRHCPSKRK
EC80 [11, 13]: 0.1574 µM
EC80 ([11]; screen, CHO, 37C, 2HR): 0.157 µM

B3: CCL25: control agonist (protein, UniProt O15444 24-150, looked up)
C-C motif chemokine 25: QGVFEDCCLAYHYPIGWAVLRRAWTYRIQEVSGSCNLPAAIFYLPKRHRKVCGNPKSREVQRAMKLLDARNKVFAKLHHNTQTFQAGPHAVKKLSSGNSKLSSSKFSNPISSSKRNVSLLISANSGL
EC80 [12, 13]: 0.35 µM
EC80 ([12]; screen, CHO, 37C, 2HR): 0.37 µM
